Reference: patent US3932425A, “Benzospiran derivatives” (The Upjohn Company, priority 1974, dated 1976)

Columns and labels:
Type in all cases: in vivo
rats = assay: Hypotensive activity (manner of Weeks and Jones, Proc. Soc. Exp. Biol. and Med. 104, 646 (1960)); details: Rattus norvegicus; oral administration to rats; read-out: MED100 (minimal effective dose), hypotensive
Description: The free bases and pharmacologically acceptable acid addition salts of the compounds of Formula I (a, b and c) are also useful in lowering blood pressure when administered to humans and animals. This activity makes them useful in the treatment of essential hypertension. […] Exp. Biol. and Med. 104, 646 (1960). The following compounds typical of this invention have (by oral administration to rats) MED100 (minimal effective dose) as shown in the table below.

mice [1] = assay: Chimney test (tranquilizing effect; ability of mice to back up and out of a vertical glass cylinder within 30 seconds); details: Mus musculus, ip, intraperitoneal injection, 50 percent of the mice failed within 30 seconds, read-out: ED50, Ch (chimney test)
Description: (§1) The free bases and acid addition salts of the novel compounds of Formula I are useful as central nervous system (CNS) depressants when administered to humans and animals.
(§2) Tranquilizing effects of compounds of this invention are shown by the following tests in mice:
Chimney test: [Med. Exp. 4, 145 (1961)]: The test determines the ability of mice to back up and out of a verticle glass cylinder within 30 seconds. At the effective dosage, 50 percent of the mice failed doing it.

mice [2] = assay: Dish test (tranquilizing effect; mice remaining in Petri dish for more than 3 minutes); details: Mus musculus, ip, 0.05 h, intraperitoneal injection, 50 percent of the mice remain in the dish more than 3 minutes, read-out: ED50, D (dish test)
Procedure: as §1, §2
Dish test: Mice in Petri dishes (10 cm. diameter, 5 cm. high, partially embedded in wood shavings), climb out in a very short time, when not treated. Mice remaining in the dish for more than 3 minutes indicates tranquilization. ED50 equals the dose of test compound at which 50 percent of the mice remain in the dish.

mice [3] = assay: Pedestal test (tranquilizing effect; mice staying on the pedestal for more than 1 minute); details: Mus musculus, ip, 1 min, intraperitoneal injection, stay on the pedestal for more than 1 minute, read-out: ED50, P (pedestal test)
Procedure: as §1, §2
Pedestal test: The untreated mouse leaves a standard pedestal in less than a minute to climb back to the floor of the standard mouse box. Tranquilized mice will stay on the pedestal for more than 1 minute.

mice [4] = assay: Nicotine antagonism test (nicotine salicylate 2 mg./kg. overstimulation, convulsions, tonic extensor fits, death); details: Mus musculus, ip, intraperitoneal injection 30 minutes before nicotine salicylate 2 mg./kg., (3) = death, read-out: ED50, Ni (nicotine antagonism (3) test)
Procedure: as §2
Nicotine antagonism test: Mice in a group of 6 are injected with the test compound. Thirty minutes later the mice including control (untreated) mice are injected with nicotine salicylate (2 mg./kg.). The control mice show overstimulation, i.e., (1) running convulsions followed by (2) tonic extensor fits; followed by (3) death.
Ni = nicotine antagonism (3) test

Row | Compound | minimal effective dose (rats) [mg/kg] | ED50 (mice [1]) [mg/kg] | ED50 (mice [2]) [mg/kg] | ED50 (mice [3]) [mg/kg] | ED50 (mice [4]) [mg/kg]
1 | Cl.O=C(CCCNC1CCC2(CC1)Cc1ccccc1C2)c1ccc(F)cc1 [4'-Fluoro-4-[[spiro[cyclohexane-1,2'-indan]-4-yl]amino]butyrophenone hydrochloride] | 50 | – | – | – | –
2 | Cl.O=C(CCCNC1CCC2(CCc3ccccc3C2)CC1)c1ccc(F)cc1 (centres unmarked) [4'-Fluoro-4-[[3',4'-dihydrospiro[cyclohexane-1,2'(1'H)-naphthalen]-4-yl]amino]butyrophenone hydrochloride] | – | 9.9 | 9.9 | 12.5 | 7
3 | Cl.O=C(CCCNC1CCC2(CCCc3ccccc32)CC1)c1ccc(F)cc1 (centres unmarked) [4'-Fluoro-4-[3',4'-dihydrospiro[cyclohexane-1,1'(2'H)-naphthalen]-4-ylamino]butyrophenone hydrochloride] | – | 25 | 10 | 16 | 5
4 | Cl.O=C(CCCNC1CCC2(CC1)Cc1ccccc1C2O)c1ccc(F)cc1 (centres unmarked) [4'-Fluoro-4-[[1'-hydroxyspiro[cyclohexane-1,2'-indan]-4-yl]amino]butyrophenone hydrochloride] | 50 | – | – | – | –
5 | CN(CCCC(=O)c1ccc(F)cc1)C1CCC2(CC1)Cc1ccccc1C2.Cl [4'-Fluoro-4-[methyl[spiro[cyclohexane-1,2'-indan]-4-yl]amino]butyrophenone hydrochloride] | – | 16 | 3.6 | 9 | 4
